Experimental data taken from US11440923B2, “Substituted macrocyclic indole derivatives” (Bayer Aktiengesellschaft, priority 2017, dated 2022).
Where two headings read alike, the source gives them in different places.

Columns and labels:
SUDHL10 cells = experiment: Induction of cytotoxicity in SUDHL10 cells (Assay 6); format: cell-based; conditions: 5 h, CellTiter-Glo, read-out: Cytotox SUDHL10 IC50 (median)
Procedure, shortened: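 SUDHL5 and SUDHL10 cells plated and held overnight at 37° C, then incubated 5 h at 37° C with compound. Viability measured by CellTiter-Glo luminescence after 15 min shaking at room temperature. Cell-free medium wells served as control.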

MCL-1 = MCL-1 (Homo sapiens (Human), UniProt Q07820, K194A/K197A/R201A); experiment: Protein-protein interaction assay MCL-1/Noxa BH3 peptide (MCL-1 assay, TR-FRET); format: binding
MCL-1, sequence (Q07820 whole entry, looked up, stated change not applied, the tested form may be a part): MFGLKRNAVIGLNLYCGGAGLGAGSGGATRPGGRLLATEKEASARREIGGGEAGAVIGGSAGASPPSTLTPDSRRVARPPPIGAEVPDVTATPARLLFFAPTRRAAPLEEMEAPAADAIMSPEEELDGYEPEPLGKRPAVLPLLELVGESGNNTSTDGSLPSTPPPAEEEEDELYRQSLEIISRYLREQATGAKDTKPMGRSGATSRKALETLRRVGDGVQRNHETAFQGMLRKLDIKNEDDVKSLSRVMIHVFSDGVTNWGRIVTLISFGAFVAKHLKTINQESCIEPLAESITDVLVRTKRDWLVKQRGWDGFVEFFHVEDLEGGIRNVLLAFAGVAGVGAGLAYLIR
Procedure, shortened: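 Competition TR-FRET with MBP-MCL-1 (aa 173-321) at 1 nM final and biotinylated Noxa BH3 peptide, pH 7 Tris buffer. Compounds pre-incubated 10 min at 22° C., then 1 h at 22° C. and overnight at 4° C. 665/620 nm ratio normalized to DMSO; IC50 from 4-parameter fit.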

IC50 (MCL-1; MCL-1 Assay IC50 (median))	IC50 (MCL-1; read-out: MCL-1 Assay IC50 (median))	Compound	IC50 (SUDHL10 cells; Homo sapiens, SU-DHL10, 5 h)	IC50 (SUDHL10 cells)
1.3 nM	–	CCc1c2c(nn1C)C(C1CC1)OCCCCn1c(C(=O)O)c(CCCOc3cccc4cc(F)ccc34)c3ccc(Cl)c-2c31 (racemic) [Example 38, (rac)-4-chloro-(15-rac)-cyclopropyl-3-ethyl-7-{3-[(6-fluoronaphthalen-1-yl)oxy]propyl}-2-methyl-2,10,11,12,13,15-hexahydropyrazolo[4′,3′:9,10][1,6]oxazacycloundecino[8,7,6-hi]indole-8-carboxylic Acid]	6300 nM	–
0.39 nM	–	CCc1c2c(nn1C)C(CCO)OCCCCn1c(C(=O)O)c(CCCOc3cccc4cc(F)ccc34)c3ccc(Cl)c-2c31 (racemic) [Example 44, (rac)-4-chloro-3-ethyl-7-{3-[(6-fluoronaphthalen-1-yl)oxy]propyl}-(15-rac)-(2-hydroxyethyl)-2-methyl-2,10,11,12,13,15-hexahydropyrazolo[4′,3′:9,10][1,6]oxazacycloundecino[8,7,6-hi]indole-8-carboxylic Acid]	200 nM	–
0.85 nM	–	CCc1c2c(nn1C)C(CCN1CCOCC1)OCCCCn1c(C(=O)O)c(CCCOc3cccc4cc(F)ccc34)c3ccc(F)c-2c31 (racemic) [Example 49, (rac)-3-Ethyl-4-fluoro-7-{3-[(6-fluoronaphthalen-1-yl)oxy]propyl}-2-methyl-(15-rac)-[2-(morpholin-4-yl)ethyl]-2,10,11,12,13,15-hexahydropyrazolo[4′,3′:9,10][1,6]oxazacycloundecino[8,7,6-hi]indole-8-carboxylic Acid]	33 nM	–
0.88 nM	–	CCc1c2c(nn1C)C(CC(C)(C)O)OCCCCn1c(C(=O)O)c(CCCOc3cccc4cc(F)ccc34)c3ccc(Cl)c-2c31 (racemic) [Example 52, (rac)-4-chloro-3-ethyl-7-{3-[(6-fluoronaphthalen-1-yl)oxy]propyl}-(15-rac)-(2-hydroxy-2-methylpropyl)-2-methyl-2,10,11,12,13,15-hexahydropyrazolo[4′,3′:9,10][1,6]oxazacycloundecino[8,7,6-hi]indole-8-carboxylic Acid]	280 nM	–
1.3 nM	–	CCc1c2c(nn1C)C(CCCN1CCOCC1)OCCCCn1c(C(=O)O)c(CCCOc3cccc4cc(F)ccc34)c3ccc(Cl)c-2c31 (racemic) [Example 65, (rac)-4-chloro-3-ethyl-7-{3-[(6-fluoronaphthalen-1-yl)oxy]propyl}-2-methyl-(15-rac)-[3-(morpholin-4-yl)propyl]-2,10,11,12,13,15-hexahydropyrazolo[4′,3′:9,10][1,6]oxazacycloundecino[8,7,6-hi]indole-8-carboxylic Acid]	100 nM	–
1 nM	–	CCc1c2c(nn1C)C(CCC(C)(C)O)OCCCCn1c(C(=O)O)c(CCCOc3cccc4cc(F)ccc34)c3ccc(Cl)c-2c31 (racemic) [Example 74, (rac)-4-chloro-3-ethyl-7-{3-[(6-fluoronaphthalen-1-yl)oxy]propyl}-(15-rac)-(3-hydroxy-3-methylbutyl)-2-methyl-2,10,11,12,13,15-hexahydropyrazolo[4′,3′:9,10][1,6]oxazacycloundecino[8,7,6-hi]indole-8-carboxylic Acid]	55 nM	–
–	1.1 nM	CCc1c2c(nn1C)C1CCCN1CCCCn1c(C(=O)O)c(CCCOc3cccc4cc(F)ccc34)c3ccc(Cl)c-2c31 (single isomer, unassigned; (+)) [Example 105, (+)-17-chloro-1-ethyl-14-{3-[(6-fluoronaphthalen-1-yl)oxy]propyl}-2-methyl-3b,4,5,6,8,9,10,11-octahydro-2H-pyrazolo[3′,4′:8,9]pyrrolo[1′,2′:6,7][1,6]diazacycloundecino[10,11,1-hi]indole-13-carboxylic Acid]	–	290 nM
0.53 nM	–	Cc1c2c(nn1C)C(CCN1CCOCC1)OCCCCn1c(C(=O)O)c(CCCOc3cccc4ccccc34)c3ccc(Cl)c-2c31 (single isomer, unassigned; enantiomer 1) [Example 14, 4-chloro-2,3-dimethyl-15-[2-(morpholin-4-yl)ethyl]-7-{3-[(naphthalen-1-yl)oxy]propyl}-2,10,11,12,13,15-hexahydropyrazolo[4′,3′:9,10][1,6]oxazacycloundecino[8,7,6-hi]indole-8-carboxylic Acid (Enantiomer 1)]	–	34 nM

Further lines, the compound ahead of its results:

Compound	IC50 (MCL-1; MCL-1 Assay IC50 (median))	IC50 (MCL-1; read-out: MCL-1 Assay IC50 (median))	IC50 (SUDHL10 cells; Homo sapiens, SU-DHL10, 5 h)	IC50 (SUDHL10 cells)
COCCC1OCCCCn2c(C(=O)O)c(CCCOc3cccc4ccccc34)c3ccc(Cl)c(c32)-c2c1nn(C)c2C (racemic) [Example 37, (rac)-4-chloro-(15-rac)-(2-methoxyethyl)-2,3-dimethyl-7-{3-[(naphthalen-1-yl)oxy]propyl}-2,10,11,12,13,15-hexahydropyrazolo[4′,3′:9,10][1,6]oxazacycloundecino[8,7,6-hi]indole-8-carboxylic Acid]	0.48 nM	–	360 nM	–
CCc1c2c(nn1C)C(CCOC)OCCCCn1c(C(=O)O)c(CCCOc3cccc4cc(F)ccc34)c3ccc(Cl)c-2c31 (racemic) [Example 41, (rac)-4-chloro-3-ethyl-7-{3-[(6-fluoronaphthalen-1-yl)oxy]propyl}-(15-rac)-(2-methoxyethyl)-2-methyl-2,10,11,12,13,15-hexahydropyrazolo[4′,3′:9,10][1,6]oxazacycloundecino[8,7,6-hi]indole-8-carboxylic Acid]	0.52 nM	–	160 nM	–
CCc1c2c(nn1C)C(c1ccccc1)OCCCCn1c(C(=O)O)c(CCCOc3cccc4cc(F)ccc34)c3ccc(Cl)c-2c31 (racemic) [Example 59, (rac)-4-chloro-3-ethyl-7-{3-[(6-fluoronaphthalen-1-yl)oxy]propyl}-2-methyl-(15-rac)-phenyl-2,10,11,12,13,15-hexahydropyrazolo[4′,3′:9,10][1,6]oxazacycloundecino[8,7,6-hi]indole-8-carboxylic Acid]	2.7 nM	–	1000 nM	–
CCc1c2c(nn1C)C(Cc1ccccc1)OCCCCn1c(C(=O)O)c(CCCOc3cccc4cc(F)ccc34)c3ccc(Cl)c-2c31 (racemic) [Example 92, (rac)-(rac-15)-benzyl-4-chloro-3-ethyl-7-{3-[(6-fluoro-1-naphthyl)oxy]propyl}-2-methyl-2,10,11,12,13,15-hexahydropyrazolo[4′,3′:9,10][1,6]oxazacycloundecino[8,7,6-hi]indole-8-carboxylic Acid]	3.2 nM	–	1400 nM	–
CCc1c2c(nn1C)C1CCCCN1CCCCn1c(C(=O)O)c(CCCOc3cccc4ccccc34)c3ccc(Cl)c-2c31 (racemic) [Example 102, (rac)-18-chloro-1-ethyl-2-methyl-15-[3-(1-naphthyloxy)propyl]-2,3b,4,5,6,7,9,10,11,12-decahydropyrazolo[3′,4′:8,9]pyrido[1′,2′:6,7][1,6]diazacycloundecino[10,11,1-hi]indole-14-carboxylic Acid]	1.4 nM	–	950 nM	–
Cc1c2c(nn1C)C(CCO)OCCCCn1c(C(=O)O)c(CCCOc3cccc4ccccc34)c3ccc(Cl)c-2c31 (single isomer, unassigned; enantiomer 1) [Example 31, (+)-4-chloro-15-(2-hydroxyethyl)-2,3-dimethyl-7-{3-[(naphthalen-1-yl)oxy]propyl}-2,10,11,12,13,15-hexahydropyrazolo[4′,3′:9,10][1,6]oxazacycloundecino[8,7,6-hi]indole-8-carboxylic Acid (Enantiomer 1)]	0.26 nM	–	–	350 nM
